Reference: patent US20260297081A1, “COMPOUNDS AND METHODS OF TREATING CANCERS” (Cullgen Inc., priority 2023, published 2026)

Key:
[1] = biological target: CDK4 (Homo sapiens, UniProt P11802+Q16531); test: CDK4 percentage degradation in Calu-1 cells (Table 6); assay type: cell-based; parameters: Cells that express cyclin D1-3 and CDK4/6 proteins were treated with heterobifunctional compounds; endogenous in cells; host or cells: Calu-1; details: 16 hours; for inhibition at 0.04 µM: 40 nM; for inhibition at 0.2 µM: 200 nM
Sequence of CDK4 (P11802 2-303 limits assumed): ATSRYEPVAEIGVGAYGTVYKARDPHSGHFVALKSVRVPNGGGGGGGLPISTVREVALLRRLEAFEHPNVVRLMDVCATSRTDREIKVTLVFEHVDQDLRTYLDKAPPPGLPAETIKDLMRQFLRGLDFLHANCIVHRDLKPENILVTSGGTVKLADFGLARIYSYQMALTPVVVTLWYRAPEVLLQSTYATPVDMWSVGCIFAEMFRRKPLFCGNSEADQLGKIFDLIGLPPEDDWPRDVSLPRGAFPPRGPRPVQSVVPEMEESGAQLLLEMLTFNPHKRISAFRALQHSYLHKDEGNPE
Sequence of CDK4 (P24385 whole entry partner): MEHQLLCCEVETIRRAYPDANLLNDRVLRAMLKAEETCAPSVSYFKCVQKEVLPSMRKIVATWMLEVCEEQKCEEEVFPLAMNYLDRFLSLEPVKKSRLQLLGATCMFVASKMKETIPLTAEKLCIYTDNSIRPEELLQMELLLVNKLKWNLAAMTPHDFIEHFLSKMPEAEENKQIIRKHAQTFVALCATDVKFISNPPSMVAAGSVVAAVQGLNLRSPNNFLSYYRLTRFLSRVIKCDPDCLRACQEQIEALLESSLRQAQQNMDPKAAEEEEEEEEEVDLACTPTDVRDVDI
Sequence of CDK4 (Q16531 2-1140 limits assumed): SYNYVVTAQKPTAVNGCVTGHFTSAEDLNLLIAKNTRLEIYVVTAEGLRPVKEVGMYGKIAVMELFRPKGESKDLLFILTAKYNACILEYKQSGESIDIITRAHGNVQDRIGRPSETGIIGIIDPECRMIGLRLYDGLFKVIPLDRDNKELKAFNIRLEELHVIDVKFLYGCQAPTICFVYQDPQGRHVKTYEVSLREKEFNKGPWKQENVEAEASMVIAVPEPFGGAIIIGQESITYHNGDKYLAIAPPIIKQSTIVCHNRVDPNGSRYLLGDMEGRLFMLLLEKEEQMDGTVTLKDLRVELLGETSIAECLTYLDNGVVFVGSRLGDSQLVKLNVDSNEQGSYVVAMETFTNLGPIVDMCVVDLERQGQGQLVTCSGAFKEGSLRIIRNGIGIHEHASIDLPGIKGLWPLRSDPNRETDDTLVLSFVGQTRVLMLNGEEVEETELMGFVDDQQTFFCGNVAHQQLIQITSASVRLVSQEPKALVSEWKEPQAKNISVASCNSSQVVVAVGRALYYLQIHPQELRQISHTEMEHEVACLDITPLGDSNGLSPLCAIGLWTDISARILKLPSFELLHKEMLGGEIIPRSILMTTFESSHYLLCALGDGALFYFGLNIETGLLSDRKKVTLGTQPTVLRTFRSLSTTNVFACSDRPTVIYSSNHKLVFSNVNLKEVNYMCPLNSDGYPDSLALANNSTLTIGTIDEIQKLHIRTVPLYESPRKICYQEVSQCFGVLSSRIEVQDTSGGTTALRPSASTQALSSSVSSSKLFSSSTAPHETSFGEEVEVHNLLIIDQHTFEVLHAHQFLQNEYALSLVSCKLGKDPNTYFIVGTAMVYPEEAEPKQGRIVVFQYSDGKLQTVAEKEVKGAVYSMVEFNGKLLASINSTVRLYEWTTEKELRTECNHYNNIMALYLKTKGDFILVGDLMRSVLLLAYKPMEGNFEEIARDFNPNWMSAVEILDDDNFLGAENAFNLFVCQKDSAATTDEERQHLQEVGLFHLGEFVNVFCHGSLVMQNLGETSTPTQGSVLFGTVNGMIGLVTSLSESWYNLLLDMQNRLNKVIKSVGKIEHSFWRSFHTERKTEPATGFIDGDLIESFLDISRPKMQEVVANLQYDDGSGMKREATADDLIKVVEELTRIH
How it was run: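 Percentage degradation of Cyclin D1 and CDK4 derived from densitometry of ECL Western blots on lysates of Calu-1 cells. Treatment was 16 h with compound at either 40 nM or 200 nM.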

[2] = system: MCF7 cells; test: Anti-proliferation (viability) of MCF7 cells (Table 7, FIG. 2B); assay type: cell-based; details: Homo sapiens, MCF7, MCF7 cells, 3-6 days, 10-point serial dilution; read-out: GI IC50 in MCF-7

| SMILES | inhibition at 0.04 µM [1] | inhibition at 0.2 µM [1] | IC50 [2] |
| --- | --- | --- | --- |
| CC(=O)c1c(C)c2cnc(Nc3ccc(N4CCN(CC(=O)NCC5CC(Nc6nc(NC(C)C)ccc6C(=O)Nc6cc(C)n(C)n6)C5)CC4)cn3)nc2n(C2CCCC2)c1=O (centres unmarked) [CPD-205, 2-((3-((2-(4-(6-((6-acetyl-8-cyclopentyl-5-methyl-7-oxo-7,8-dihydropyrido[2,3-d]pyrimidin-2-yl)amino)pyridin-3-yl)piperazin-1-yl)acetamido)methyl)cyclobutyl)amino)-N-(1,5-dimethyl-1H-pyrazol-3-yl)-6-(isopropylamino)nicotinamide] | 50 to 80% | 50 to 80% | < 50 nM |
| CC(=O)c1c(C)c2cnc(Nc3ccc(N4CCN(CCC(=O)N5CC6(CC(Nc7nc(NC(C)C)ccc7C(=O)Nc7cn(C)c(C8CC8)n7)C6)C5)CC4)cn3)nc2n(C2CCCC2)c1=O [CPD-323, 2-((2-(3-(4-(6-((6-acetyl-8-cyclopentyl-5-methyl-7-oxo-7,8-dihydropyrido[2,3-d]pyrimidin-2-yl)amino)pyridin-3-yl)piperazin-1-yl)propanoyl)-2-azaspiro[3.3]heptan-6-yl)amino)-N-(2-cyclopropyl-1-methyl-1H-imidazol-4-yl)-6-(isopropylamino)nicotinamide] | < 30% | < 30% | < 50 nM |
| CNc1ccc(C(=O)Nc2cn(C)c(C3CC3)n2)c(NC2CC(NC(=O)CN3CCN(c4ccc(Nc5ncc6c(C)c(C(C)=O)c(=O)n(C7CCCC7)c6n5)nc4)CC3)C2)n1 (centres unmarked) [CPD-217, 2-((3-(2-(4-(6-((6-acetyl-8-cyclopentyl-5-methyl-7-oxo-7,8-dihydropyrido[2,3-d]pyrimidin-2-yl)amino)pyridin-3-yl)piperazin-1-yl)acetamido)cyclobutyl)amino)-N-(2-cyclopropyl-1-methyl-1H-imidazol-4-yl)-6-(methylamino)nicotinamide] | 50 to 80% | 50 to 80% | > 100 nM |
| CNc1ccc(C(=O)Nc2ccc(N(C)C)nn2)c(NC2CC3(C2)CC(C(=O)N2CC4(CCN(c5ccc(Nc6ncc7c(C)c(C(C)=O)c(=O)n(C8CCCC8)c7n6)nc5)CC4)C2)C3)n1 (centres unmarked) [CPD-363] |  |  | > 100 nM |
| CC(=O)c1c(C)c2cnc(Nc3ccc(N4CCN(C(C)CC(=O)N5CC(Nc6nc(NC(C)C)ccc6C(=O)Nc6ccc(N(C)C)nn6)C5)CC4)cn3)nc2n(C2CCCC2)c1=O (centres unmarked) [CPD-355, 2-((1-(3-(4-(6-((6-acetyl-8-cyclopentyl-5-methyl-7-oxo-7,8-dihydropyrido[2,3-d]pyrimidin-2-yl)amino)pyridin-3-yl)piperazin-1-yl)butanoyl)azetidin-3-yl)amino)-N-(6-(dimethylamino)pyridazin-3-yl)-6-(isopropylamino)nicotinamide] |  |  | 50 to 100 nM |
| [2H]C([2H])([2H])Nc1ccc(C(=O)Nc2ccc(N(C)C)nn2)c(NC2CC(CNC(=O)CN3CCN(c4ccc(Nc5ncc6c(C)c(C(C)=O)c(=O)n(C7CCCC7)c6n5)nc4)CC3)C2)n1 (centres unmarked) [CPD-343, 2-((3-((2-(4-(6-((6-acetyl-8-cyclopentyl-5-methyl-7-oxo-7,8-dihydropyrido[2,3-d]pyrimidin-2-yl)amino)pyridin-3-yl)piperazin-1-yl)acetamido)methyl)cyclobutyl)amino)-N-(6-(dimethylamino)pyridazin-3-yl)-6-((methyl-d3)amino)nicotinamide] |  |  | 50 to 100 nM |
| CC(=O)c1c(C)c2cnc(Nc3ccc(N4CCN(CC(=O)NCC5CC(Nc6ccc(F)cc6C(=O)Nc6cc(C)n(C)n6)C5)CC4)cn3)nc2n(C2CCCC2)c1=O (centres unmarked) [CPD-263, 2-((3-((2-(4-(6-((6-acetyl-8-cyclopentyl-5-methyl-7-oxo-7,8-dihydropyrido[2,3-d]pyrimidin-2-yl)amino)pyridin-3-yl)piperazin-1-yl)acetamido)methyl)cyclobutyl)amino)-N-(1,5-dimethyl-1H-pyrazol-3-yl)-5-fluorobenzamide] |  |  | > 100 nM |
| CC(=O)c1c(C)c2cnc(Nc3ccc(N4CCC(N5CC(C(=O)NC6CC7(C6)CC(Nc6nc(NC(C)C)ccc6C(=O)Nc6ccc(N(C)C)nn6)C7)C5)CC4)cn3)nc2n(C2CCCC2)c1=O (centres unmarked) [CPD-393, 2-((6-(1-(1-(6-((6-acetyl-8-cyclopentyl-5-methyl-7-oxo-7,8-dihydropyrido[2,3-d]pyrimidin-2-yl)amino)pyridin-3-yl)piperidin-4-yl)azetidine-3-carboxamido)spiro[3.3]heptan-2-yl)amino)-N-(6-(dimethylamino)pyridazin-3-yl)-6-(isopropylamino)nicotinamide] |  |  | 50 to 100 nM |
| CNc1ccc(C(=O)Nc2ccc(N(C)C)nn2)c(NC2CCC(C(=O)N3CC4(CCN(c5ccc(Nc6ncc7c(C)c(C(C)=O)c(=O)n(C8CCCC8)c7n6)nc5)CC4)C3)CC2)n1 (centres unmarked) [CPD-351, 2-((4-(7-(6-((6-acetyl-8-cyclopentyl-5-methyl-7-oxo-7,8-dihydropyrido[2,3-d]pyrimidin-2-yl)amino)pyridin-3-yl)-2,7-diazaspiro[3.5]nonane-2-carbonyl)cyclohexyl)amino)-N-(6-(dimethylamino)pyridazin-3-yl)-6-(methylamino)nicotinamide] |  |  | > 100 nM |
| CC(=O)c1c(C)c2cnc(Nc3ccc(N4CCN(C5(C(=O)NC6CC7(C6)CC(Nc6nc(NC(C)C)ccc6C(=O)Nc6cc(C)on6)C7)CC5)CC4)cn3)nc2n(C2CCCC2)c1=O (centres unmarked) [CPD-371, 2-((6-(1-(4-(6-((6-acetyl-8-cyclopentyl-5-methyl-7-oxo-7,8-dihydropyrido[2,3-d]pyrimidin-2-yl)amino)pyridin-3-yl)piperazin-1-yl)cyclopropane-1-carboxamido)spiro[3.3]heptan-2-yl)amino)-6-(isopropylamino)-N-(5-methylisoxazol-3-yl)nicotinamide] |  |  | > 100 nM |
| CNc1ccc(C(=O)Nc2cn(C)c(C3CC3)n2)c(NC2CC3(C2)CN(C(=O)C2CC4(CCN(c5ccc(Nc6ncc7c(C)c(C(C)=O)c(=O)n(C8CCCC8)c7n6)nc5)CC4)C2)C3)n1 (centres unmarked) [CPD-321, 2-((2-(7-(6-((6-acetyl-8-cyclopentyl-5-methyl-7-oxo-7,8-dihydropyrido[2,3-d]pyrimidin-2-yl)amino)pyridin-3-yl)-7-azaspiro[3.5]nonane-2-carbonyl)-2-azaspiro[3.3]heptan-6-yl)amino)-N-(2-cyclopropyl-1-methyl-1H-imidazol-4-yl)-6-(methylamino)nicotinamide] |  |  | > 100 nM |

Second part, the compound after the results:

| inhibition at 0.04 µM [1] | inhibition at 0.2 µM [1] | IC50 [2] | SMILES |
| --- | --- | --- | --- |
|  |  | < 50 nM | [2H]C([2H])([2H])Nc1ccc(C(=O)Nc2ccc(N(C)C)nn2)c(NC2CC(CNC(=O)CN3CCC4(CCN(c5ccc(Nc6ncc7c(C)c(C(C)=O)c(=O)n(C8CCCC8)c7n6)nc5)C4)C3)C2)n1 (centres unmarked) [CPD-445, 2-((3-((2-(7-(6-((6-acetyl-8-cyclopentyl-5-methyl-7-oxo-7,8-dihydropyrido[2,3-d]pyrimidin-2-yl)amino)pyridin-3-yl)-2,7-diazaspiro[4.4]nonan-2-yl)acetamido)methyl)cyclobutyl)amino)-N-(6-(dimethylamino)pyridazin-3-yl)-6-((methyl-d3)amino)nicotinamide] |
|  |  | > 100 nM | CC(=O)c1c(C)c2cnc(Nc3ccc(N4CCC(N5CCC(C(=O)N6CCC(Nc7nc(NC(C)C)ccc7C(=O)Nc7ccc(N(C)C)nn7)CC6)C5)CC4)cn3)nc2n(C2CCCC2)c1=O (centres unmarked) [CPD-396, 2-((1-(1-(1-(6-((6-acetyl-8-cyclopentyl-5-methyl-7-oxo-7,8-dihydropyrido[2,3-d]pyrimidin-2-yl)amino)pyridin-3-yl)piperidin-4-yl)pyrrolidine-3-carbonyl)piperidin-4-yl)amino)-N-(6-(dimethylamino)pyridazin-3-yl)-6-(isopropylamino)nicotinamide] |
|  |  | > 100 nM | CC(=O)c1c(C)c2cnc(Nc3ccc(N4CCN(C5CN(C(=O)C6CC7(CC(Nc8nc(NC(C)C)ccc8C(=O)Nc8ccc(N(C)C)nn8)C7)C6)C5)CC4)cn3)nc2n(C2CCCC2)c1=O (centres unmarked) [CPD-401, 2-((6-(3-(4-(6-((6-acetyl-8-cyclopentyl-5-methyl-7-oxo-7,8-dihydropyrido[2,3-d]pyrimidin-2-yl)amino)pyridin-3-yl)piperazin-1-yl)azetidine-1-carbonyl)spiro[3.3]heptan-2-yl)amino)-N-(6-(dimethylamino)pyridazin-3-yl)-6-(isopropylamino)nicotinamide] |
|  |  | > 100 nM | CC(=O)c1c(C)c2cnc(N(C)c3ccc(N4CCN(CCC(=O)N5CC6(CC(Nc7nc(NC(C)C)ccc7C(=O)Nc7cc(C)n(C)n7)C6)C5)CC4)cn3)nc2n(C2CCCC2)c1=O [CPD-404, 2-((2-(3-(4-(6-((6-acetyl-8-cyclopentyl-5-methyl-7-oxo-7,8-dihydropyrido[2,3-d]pyrimidin-2-yl)(methyl)amino)pyridin-3-yl)piperazin-1-yl)propanoyl)-2-azaspiro[3.3]heptan-6-yl)amino)-N-(1,5-dimethyl-1H-pyrazol-3-yl)-6-(isopropylamino)nicotinamide] |
|  |  | < 50 nM | CC(=O)c1c(C)c2cnc(Nc3ccc(N4CCC5(CCN(CC(=O)N6CC7(CC(Nc8nc(NC(C)C)ccc8C(=O)Nc8cn(C)c(C9CC9)n8)C7)C6)C5)C4)cn3)nc2n(C2CCCC2)c1=O (centres unmarked) [CPD-444, 2-((2-(2-(7-(6-((6-acetyl-8-cyclopentyl-5-methyl-7-oxo-7,8-dihydropyrido[2,3-d]pyrimidin-2-yl)amino)pyridin-3-yl)-2,7-diazaspiro[4.4]nonan-2-yl)acetyl)-2-azaspiro[3.3]heptan-6-yl)amino)-N-(2-cyclopropyl-1-methyl-1H-imidazol-4-yl)-6-(isopropylamino)nicotinamide] |
|  |  | < 50 nM | [2H]C([2H])([2H])Nc1ccc(C(=O)Nc2ccc(N(C)C)nn2)c(NC2CCN(C(=O)CN3CCC4(CCN(c5ccc(Nc6ncc7c(C)c(C(C)=O)c(=O)n(C8CCCC8)c7n6)nc5)C4)C3)CC2)n1 (centres unmarked) [CPD-441, 2-((1-(2-(7-(6-((6-acetyl-8-cyclopentyl-5-methyl-7-oxo-7,8-dihydropyrido[2,3-d]pyrimidin-2-yl)amino)pyridin-3-yl)-2,7-diazaspiro[4.4]nonan-2-yl)acetyl)piperidin-4-yl)amino)-N-(6-(dimethylamino)pyridazin-3-yl)-6-((methyl-d3)amino)nicotinamide] |
